Laboratory results published in patent publication US20240398805A1, “QUINAZOLINE DERIVED COMPOUNDS AS EGFR INHIBITORS AND THEIR USES THEREOF” (ACCUTAR BIOTECHNOLOGY INC., priority 2021, published 2024).

How the values were obtained:
Type in all cases: cell-based
HCC827 cells = test: Cell growth inhibition (CellTiter-Glo, 3 days) in HCC827; settings: Homo sapiens, 72 h, 3 days after administration
In short: (§1)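 HCC827 cells in RPMI/10% FBS and A431 cells in DMEM/10% FBS were seeded at 5000 cells/well and left overnight. Compound was then added over a concentration range for 3 days of incubation, and viability was read by CellTiter-Glo luminescence.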

A431 cells = test: Cell growth inhibition (CellTiter-Glo, 3 days) in A431; settings: Homo sapiens, A-431, 72 h, 3 days after administration
In short: as §1

[1] = tested on: HCC827-ASV cells (human EGFR exon 20 insertion mutant A769_D770insASV); test: Cell growth inhibition (CellTiter-Glo, 3 days) in HCC827-ASV; settings: 72 h, 3 days after administration
In short: (§2)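 Growth inhibition used a CellTiter-Glo luminescence read-out after 3 days of compound exposure at various concentrations. Cells were plated the day before at 5000/well in RPMI plus 10% FBS. The lines are HCC827 transduced by lentivirus with codon-optimized EGFR ASV or ERBB2 YVMA exon 20 insertions.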

[2] = tested on: HCC827-YVMA cells (human ERBB2 exon20 insertion mutant A775_G776ins YVMA); test: Cell growth inhibition (CellTiter-Glo, 3 days) in HCC827-YVMA; settings: 72 h, 3 days after administration
In short: as §2

[3] = tested on: HCC827-SVD cells (human EGFR exon 20 insertion mutant D770_N771 insSVD); test: Cell growth inhibition (CellTiter-Glo, 3 days) in HCC827-SVD; settings: 72 h, 3 days after administration
In short: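 HCC827 cells carrying lentiviral codon-optimized EGFR D770_N771 insSVD, with endogenous EGFR knocked out by CRISPR (single clone), seeded at 5000 cells/well in RPMI with 10% FBS. Viability read by CellTiter-Glo luminescence.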

Structure (SMILES) | GI50 (HCC827 cells) | GI50 (A431 cells) | GI50 [1] | GI50 [2] | GI50 [3]
C=CC(=O)N1CCC(Nc2cc3c(Nc4ccc(Oc5ccn(-c6cnc(C)c(F)c6)n5)cc4F)ncnc3cc2OC)CC1 [Compound 2, 1-(4-((4-((2-fluoro-4-((1-(5-fluoro-6-methylpyridin-3-yl)-1H-pyrazol-3-yl)oxy)phenyl)amino)-7-methoxyquinazolin-6-yl)amino)piperidin-1-yl)prop-2-en-1-one] | < 30 nM | 60 to 100 nM | < 30 nM | < 30 nM | < 30 nM
C=CC(=O)N1CCC(Nc2cc3c(Nc4ccc(Oc5ccnc(N6C7CCC6COC7)c5)cc4F)ncnc3cc2OC)CC1 [Example 136, 1-(4-((4-((4-((2-(3-oxa-8-azabicyclo[3.2.1]octan-8-yl)pyridin-4-yl)oxy)-2-fluorophenyl)amino)-7-methoxyquinazolin-6-yl)amino)piperidin-1-yl)prop-2-en-1-one] | 300 to 600 nM | 600 to 1000 nM | 30 to 60 nM | 30 to 60 nM | 30 to 60 nM
C=CC(=O)N1CCC(Nc2cc3c(Nc4ccc(Oc5ccnc(N6C[C@H]7COC[C@H]7C6)c5)cc4F)ncnc3cc2OC)CC1 [Example 190, 1-(4-((4-((2-fluoro-4-((2-((3aR,6aS)-tetrahydro-1H-furo[3,4-c]pyrrol-5(3H)-yl)pyridin-4-yl)oxy)phenyl)amino)-7-methoxyquinazolin-6-yl)amino)piperidin-1-yl)prop-2-en-1-one] | 30 to 60 nM | 300 to 600 nM | < 30 nM | < 30 nM | < 30 nM
C=CC(=O)N1CCC(Nc2cc3c(Nc4ccc(Oc5ccnc(N6CCC(O)C(F)(F)C6)c5)cc4F)ncnc3cc2OC)CC1 (centres unmarked) [Example 172, 1-(4-((4-((4-((2-(3,3-difluoro-4-hydroxypiperidin-1-yl)pyridin-4-yl)oxy)-2-fluorophenyl)amino)-7-methoxyquinazolin-6-yl)amino)piperidin-1-yl)prop-2-en-1-one] | 300 to 600 nM | 600 to 1000 nM | < 30 nM | < 30 nM | < 30 nM
C=CC(=O)N1CCC(Nc2cc3c(Nc4ccc(Oc5ccnc(N6CCC(C)(C#N)CC6)c5)cc4F)ncnc3cc2OC)CC1 [Example 200, 1-(4-(4-((6-((1-acryloylpiperidin-4-yl)amino)-7-methoxyquinazolin-4-yl)amino)-3-fluorophenoxy)pyridin-2-yl)-4-methylpiperidine-4-carbonitrile] | 60 to 100 nM | ≥ 1000 nM | 30 to 60 nM | 60 to 100 nM | 30 to 60 nM
C=CC(=O)N1CCC(Nc2cc3c(Nc4ccc(Oc5ccn(-c6cccc(OC)n6)n5)cc4F)ncnc3cc2OC)CC1 [Example 58, 1-(4-((4-((2-fluoro-4-((1-(6-methoxypyridin-2-yl)-1H-pyrazol-3-yl)oxy)phenyl)amino)-7-methoxyquinazolin-6-yl)amino)piperidin-1-yl)prop-2-en-1-one] | 60 to 100 nM | 300 to 600 nM | 60 to 100 nM | 60 to 100 nM | 60 to 100 nM
C=CC(=O)N1CCC(Nc2cc3c(Nc4ccc(Oc5ccn(-c6cc(F)c(C)cn6)n5)c(Cl)c4)ncnc3cc2OC)CC1 [Example 17, 1-(4-((4-((3-chloro-4-((1-(4-fluoro-5-methylpyridin-2-yl)-1H-pyrazol-3-yl)oxy)phenyl)amino)-7-methoxyquinazolin-6-yl)amino)piperidin-1-yl)prop-2-en-1-one] | 60 to 100 nM | 100 to 300 nM | 600 to 1000 nM | 600 to 1000 nM | 100 to 300 nM
C=CC(=O)N1CCC(Nc2cc3c(Nc4ccc(Oc5ccnc(N6CCC(OC)CC6)c5)cc4F)ncnc3cc2OC)CC1 [Example 104, 1-(4-((4-((2-fluoro-4-((2-(4-methoxypiperidin-1-yl)pyridin-4-yl)oxy)phenyl)amino)-7-methoxyquinazolin-6-yl)amino)piperidin-1-yl)prop-2-en-1-one] | 100 to 300 nM | ≥ 1000 nM | < 30 nM | < 30 nM | < 30 nM

The remaining lines, values ahead:

GI50 (HCC827 cells) | GI50 (A431 cells) | GI50 [1] | GI50 [2] | GI50 [3] | Structure (SMILES)
100 to 300 nM | 300 to 600 nM | < 30 nM | < 30 nM | < 30 nM | C=CC(=O)N1CCC(Nc2cc3c(Nc4ccc(Oc5ccnc(-c6nc(C)sc6C)c5)cc4F)ncnc3cc2OC)CC1 [Example 177, 1-(4-((4-((4-((2-(2,5-dimethylthiazol-4-yl)pyridin-4-yl)oxy)-2-fluorophenyl)amino)-7-methoxyquinazolin-6-yl)amino)piperidin-1-yl)prop-2-en-1-one]
≥ 1000 nM | ≥ 1000 nM | 300 to 600 nM | 600 to 1000 nM | 300 to 600 nM | C=CC(=O)N1CCC(Nc2cc3c(Nc4ccc(Oc5ccnc(N6CCNCC6)c5)cc4F)ncnc3cc2OC)CC1 [Example 123, 1-(4-((4-((2-fluoro-4-((2-(piperazin-1-yl)pyridin-4-yl)oxy)phenyl)amino)-7-methoxyquinazolin-6-yl)amino)piperidin-1-yl)prop-2-en-1-one]
300 to 600 nM | ≥ 1000 nM | 30 to 60 nM | 30 to 60 nM | 30 to 60 nM | C=CC(=O)N1CCC(Nc2cc3c(Nc4ccc(Oc5ccnc(N6CC7(COC7)C6)c5)cc4F)ncnc3cc2OC)CC1 [Example 118, 1-(4-((4-((4-((2-(2-oxa-6-azaspiro[3.3]heptan-6-yl)pyridin-4-yl)oxy)-2-fluorophenyl)amino)-7-methoxyquinazolin-6-yl)amino)piperidin-1-yl)prop-2-en-1-one]
≥ 1000 nM | ≥ 1000 nM | 600 to 1000 nM | ≥ 1000 nM | 600 to 1000 nM | C=CC(=O)N1CCC(Nc2cc3c(Nc4ccc(Oc5ccnc(N6CC(C(N)=O)C6)c5)cc4F)ncnc3cc2OC)CC1 [Example 144, 1-(4-(4-((6-((1-acryloylpiperidin-4-yl)amino)-7-methoxyquinazolin-4-yl)amino)-3-fluorophenoxy)pyridin-2-yl)azetidine-3-carboxamide]
100 to 300 nM | 300 to 600 nM | 30 to 60 nM | 30 to 60 nM | 30 to 60 nM | C=CC(=O)N1CCC(Nc2cc3c(Nc4ccc(Oc5ccnc(N6C[C@@H](F)[C@@H](F)C6)c5)cc4F)ncnc3cc2OC)CC1 [Example 253, 1-(4-((4-((4-((2-((3S,4R)-3,4-difluoropyrrolidin-1-yl)pyridin-4-yl)oxy)-2-fluorophenyl)amino)-7-methoxyquinazolin-6-yl)amino)piperidin-1-yl)prop-2-en-1-one]
60 to 100 nM | 100 to 300 nM | < 30 nM | < 30 nM | < 30 nM | C=CC(=O)N1CCC(Nc2cc3c(Nc4ccc(Oc5ccnc(N6C[C@H](OC)[C@@H](OC)C6)c5)cc4F)ncnc3cc2OC)CC1 [Example 256, 1-(4-((4-((4-((2-((3S,4S)-3,4-dimethoxypyrrolidin-1-yl)pyridin-4-yl)oxy)-2-fluorophenyl)amino)-7-methoxyquinazolin-6-yl)amino)piperidin-1-yl)prop-2-en-1-one]
300 to 600 nM | ≥ 1000 nM | 60 to 100 nM | < 30 nM | 30 to 60 nM | C=CC(=O)N1CCC(Nc2cc3c(Nc4ccc(Oc5ccnc(-c6cccnc6)c5)cc4F)ncnc3cc2OC)CC1 [Example 237, 1-(4-((4-((4-([2,3′-bipyridin]-4-yloxy)-2-fluorophenyl)amino)-7-methoxyquinazolin-6-yl)amino)piperidin-1-yl)prop-2-en-1-one]
600 to 1000 nM | ≥ 1000 nM | 100 to 300 nM | 300 to 600 nM | 60 to 100 nM | C=CC(=O)N1CCC(Nc2cc3c(Nc4ccc(Oc5ccnc(N6C[C@H](C)C[C@H](C)C6)c5)cc4F)ncnc3cc2OC)CC1 [Example 158, 1-(4-((4-((4-((2-((3S,5R)-3,5-dimethylpiperidin-1-yl)pyridin-4-yl)oxy)-2-fluorophenyl)amino)-7-methoxyquinazolin-6-yl)amino)piperidin-1-yl)prop-2-en-1-one]
60 to 100 nM | 600 to 1000 nM | 30 to 60 nM | 30 to 60 nM | 60 to 100 nM | C=CC(=O)N1CCC(Nc2cc3c(Nc4ccc(Oc5ccnc(-c6ncc(C)s6)c5)cc4F)ncnc3cc2OC)CC1 [Example 99, 1-(4-((4-((2-fluoro-4-((2-(5-methylthiazol-2-yl)pyridin-4-yl)oxy)phenyl)amino)-7-methoxyquinazolin-6-yl)amino)piperidin-1-yl)prop-2-en-1-one]
30 to 60 nM | 300 to 600 nM | < 30 nM | < 30 nM | < 30 nM | C=CC(=O)N1CCC(Nc2cc3c(Nc4ccc(Oc5ccnc(NC6CCC6)c5)cc4F)ncnc3cc2OC)CC1 [Compound 243, 1-(4-((4-((4-((2-(cyclobutylamino)pyridin-4-yl)oxy)-2-fluorophenyl)amino)-7-methoxyquinazolin-6-yl)amino)piperidin-1-yl)prop-2-en-1-one]
30 to 60 nM | 600 to 1000 nM | 30 to 60 nM | 30 to 60 nM | < 30 nM | C=CC(=O)N1CCC(Nc2cc3c(Nc4ccc(Oc5ccnc(N6CCC(C)(C#N)C6)c5)cc4F)ncnc3cc2OC)CC1 (centres unmarked) [Example 262, 1-(4-(4-((6-((1-acryloylpiperidin-4-yl)amino)-7-methoxyquinazolin-4-yl)amino)-3-fluorophenoxy)pyridin-2-yl)-3-methylpyrrolidine-3-carbonitrile]
